Tested on: T1, Aspergillus sp. DHE7 β-glucosidase
T1 construct: gene beta-D-glucosidase; native extracellular enzyme purified from solid-state culture (jojoba meal): ethanol precipitation, DEAE-Sephadex A-50, Sephadex G-100; monomer, 135 kDa by SDS-PAGE
Assay: p-nitrophenol release at […] nm, Lineweaver-Burk plot
Assay type: biochemical
Details: pH 6.0, 60 °C, 50 mM Na-citrate; 0.25 to 20 mM substrate; apparent Km

## O=[N+]([O-])c1ccc(O[C@@H]2O[C@H](CO)[C@@H](O)[C@H](O)[C@H]2O)cc1 [p-nitrophenyl-β-D-glucopyranoside]
  Km: 400 µM

Reference: paper PMC7991022, “Optimization of extracellular ethanol-tolerant β-glucosidase production from a newly isolated Aspergillus sp. DHE7 via solid state fermentation using jojoba meal as substrate: purification and biochemical characterization for biofuel preparation” (Journal of Genetic Engineering & Biotechnology, 2021)
